Data published in the supplement of paper PMC10290057.
Counter-ions that a name gives are not always drawn.

How the values were obtained:
HCT116 [1] = test: efficacy (fitted maximal change in viability relative to DMSO control); higher = less cytotoxic (negative = loss of viability); details: 48 h
HCT116 [2] = test: AC50 cell viability (CellTiter-Glo); higher = less potent; details: 48 h
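Wherever AC50 cell viability (CellTiter-Glo) is given: HCT116 colorectal carcinoma cells screened at five concentrations per compound, luminescent viability scaled between DMSO wells and empty wells on each plate, curves fitted per compound.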
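Wherever efficacy (fitted maximal change in viability relative to DMSO control) is given: Luminescence-based viability readout, five doses per compound, normalized against on-plate DMSO and empty-well controls, followed by dose-response curve fitting for every drug.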

Row | Structure (SMILES) | efficacy (HCT116 [1]) [%] | AC50 cell viability (HCT116 [2]) [µM]
1 | COc1cc(OC)c(/C=C/[S+](=O)([O-])Cc2ccc(OC)c(NCC(=O)[O-])c2)c(OC)c1 | -58.9 | 0.0661
2 | COc1cc(N2CCN(C)CC2)ccc1Nc1ncc2c(n1)N(C)c1ccccc1C(=O)N2 [XMD8-87] | -92.7 | 18.6
3 | COc1ccc(Cn2ccc3ccc(C(=O)NO)cc32)cc1 | -71.9 | 16.6
4 | CC(C)CNc1ccnc(NCc2csc(-c3ccccc3)n2)n1 [KHS-101] | -129 | 11.8
5 | COc1ccc(COc2ccc(Cc3cnc(N)nc3N)cc2OC)cc1 [GW-2580] | -96.7 | 14.8
6 | COc1cc(Nc2c(C#N)cnc3cc(OCCCN4CCN(C)CC4)c(OC)cc23)c(Cl)cc1Cl [Bosutinib] | -93.7 | 4.68
7 | CCN(CC)CCNC(=O)c1c(C)[nH]c(/C=C2\C(=O)Nc3ccc(F)cc32)c1C [Sunitinib malate] | -98.2 | 3.32
8 | C[C@H]1CN(C[C@@H](C)O1)CC(=O)NC2=CC=C3SC4=C(CC3=C2)C=CC=C4\C5=C\C(=O)\C=C(/O5)N6CCOCC6 | -51.9 | 5.9
9 | Cc1cc(-c2nc3cc(F)ccc3s2)ccc1NC(=O)[C@@H](N)CCCCN | -93.6 | 7.42
10 | CN1C(=O)C(=C/2N(C(=O)N(C3CC3)C(=O)C2=C1/NC4=CC=C(I)C=C4F)C5=CC=CC(=C5)NC(C)=O)\C [Trametinib] | -62.3 | 0.0468
11 | CC(C)C(=O)Nc1ncc(-c2cc(C(F)F)nn2-c2c(Cl)cccc2Cl)s1 [BMS-5] | -80.8 | 18.6
12 | O=[S+]([O-])(Nc1ccc(-c2cccnc2)c2cccnc12)c1cccc(C(F)(F)F)c1 [Compound 22d] | -73.3 | 4.17
13 | CC/1=C(\O)C(=O)\C=C2/C1=C\C=C3/[C@@]2(C)CC[C@@]4(C)[C@@H]5C[C@@](C)(CC[C@]5(C)CC[C@]34C)C(O)=O [Tripterin] | -98.9 | 3.32
14 | CN(C)C/C=C/C(=O)Nc1ccc(C(=O)Nc2cccc(Nc3ncc(Cl)c(-c4c[nH]c5ccccc45)n3)c2)cc1 [THZ1] | -67.4 | 0.0661
15 | Cc1ccc(-c2ccc3ncc4c(c3n2)n(C2CCN(C(=O)[C@H](C)O)CC2)c(=O)n4C)cn1 | -86.9 | 0.166
16 | CN[C@H]1CC[C@@H](c2ccc(Cl)c(Cl)c2)c2ccccc21 [Sertraline hydrochloride] | -98.8 | 20.9
17 | COCCOc1ccc2c(c1)ncn2-c1ccc2cccc(N3CCC(N)CC3)c2n1 | -85.5 | 2.95
18 | C=C1CCC2[C@](C)(CO)C(O)CC[C@]2(C)C1C/C=C1/C(=O)OCC1O (some centres undefined) [Andrographolide] | -65.7 | 7.42
19 | CCCCCCCCCCCCCC(=O)N[C@H](CO)[C@H](O)c1ccc([N+](=O)[O-])cc1 [D-NMAPPD] | -101 | 26.3

Row | Structure (SMILES) | efficacy (HCT116 [1]) [%] | AC50 cell viability (HCT116 [2]) [µM]
20 | COC1=C(CN(C)C)C=C(OC)C(=C1)C/2=C/N(C)C(=O)C3=C2C=CN=C3 [BI-9564] | -71.5 | 14.8
21 | CCCNC(=O)[C@H]1O[C@@H]1C(=O)N[C@H](C(=O)N1CCC[C@H]1C(=O)OC)C(C)CC (some centres undefined) [CA-074 Me] | -88.8 | 18.6
22 | O=C1[C@H](Cc2ccc(O)cc2)N2C(=O)CCN(C(=O)NCc3ccccc3)[C@H]2CN1Cc1cccc2ccccc12 [ICG-001] | -67.2 | 2.09
23 | CN1CCN(c2cc(C(=O)Nc3ccc4c(c3)-c3c(c(C(N)=O)nn3-c3ccc(F)cc3)CC4)c(Cl)cn2)CC1 [PHA-408] | -98.2 | 20.9
24 | COC(=O)[C@]12CCC(C)(C)C[C@H]1[C@H]3C(=O)\C=C\4[C@@](C)(CC[C@H]5C(C)(C)C(=O)\C(=C/[C@]45C)C#N)[C@]3(C)CC2 [Bardoxolone methyl] | -91.9 | 7.42
25 | Cc1ccc(Nc2cc(-c3cccc(N4C(=O)c5ccccc5C4=O)c3)ncn2)cc1N[S+](C)(=O)[O-] [CDK9 Inhibitor] | -73.6 | 20.9
26 | Cc1ccc(NC(=O)c2ccc(CN3CC[C@H](N(C)C)C3)c(C(F)(F)F)c2)cc1Nc1nccc(-c2cncnc2)n1 [Bafetinib (INNO-406)] | -131 | 7.23
27 | CCN(CC)CCCCNc1ncc2c(n1)N(C)C(=O)N(c1c(Cl)c(OC)cc(OC)c1Cl)C2 | -80.5 | 11.8
28 | Cc1[nH]c2ccccc2c1CCNCc1ccc(/C=C/C(=O)NO)cc1 [Panobinostat] | -87.7 | 0.0468
29 | C[S+](=O)([O-])N1CCC(NC(=O)c2[nH]ncc2NC(=O)c2c(Cl)cccc2Cl)CC1 [NVP-LCQ195] | -64.2 | 0.525
30 | Cc1ccc([S+](=O)([O-])Nc2cc(C(F)(F)F)ccc2C(=O)Nc2nc(-c3ccccc3)cs2)cc1 [ML-364] | -87 | 4.17
31 | CC(C)n1cnc2c(NCCc3ccc(O)cc3)nc(-c3csc4ccccc34)nc21 [StemRegenin 1] | -91.3 | 18.6
32 | C=CC(=O)Nc1cc(Nc2nccc(-c3cn(C)c4ccccc34)n2)c(OC)cc1N(C)CCN(C)C [Osimertinib mesylate] | -103 | 8.33
33 | CC(C)n1nc(-c2ccc3oc(N)nc3c2)c2c(N)ncnc21 [INK-128] | -100 | 0.372
34 | C/C(=N\NC(=S)N1CCC1)c1ccccn1 | -85.2 | 0.0295
35 | C/C=C/C/C=C/CCC(=O)[C@H]1O[C@H]1C(N)=O [Cerulenin] | -80.2 | 16.6
36 | CC/1=C/C(=O)N(O)/C(=C1)C2CCCCC2 [Ciclopirox] | -89.1 | 3.72
37 | COc1ccc([C@@H](O)[C@@H](C)Oc2ccc([C@H]3O[C@H](c4ccc(O[C@H](C)[C@H](O)c5ccc(OC)c(OC)c5)c(OC)c4)[C@H](C)[C@H]3C)cc2OC)cc1OC [Manassantin A] | -81 | 0.372
38 | Cn1c(CCCCCCC(=O)NO)nc2cc(N(CCCl)CCCl)ccc21 [Tinostamustine] | -84.7 | 2.95

Row | Structure (SMILES) | efficacy (HCT116 [1]) [%] | AC50 cell viability (HCT116 [2]) [µM]
39 | O=C(/C=C/c1cccnc1)NCCCCC1CCN(C(=O)c2ccccc2)CC1 [Daporinad] | -94.1 | 0.00525
40 | C=CC(=O)N1CCC[C@@H](n2nc(-c3ccc(Oc4ccccc4)cc3)c3c(N)ncnc32)C1 | -90.8 | 16.6
41 | CC(C)NC[C@@H](C(=O)N1CCN(c2ncnc3c2[C@H](C)C[C@H]3O)CC1)c1ccc(Cl)cc1 [Ipatasertib] | -96.8 | 13.2
42 | C[C@@]1(c2ncncc2F)NC(=O)c2cc(-c3cn[nH]c3)ccc21 | -101 | 14.8
43 | O=C(O)c1ccc(-n2nc(-c3ccccc3O)nc2-c2ccccc2O)cc1 [Deferasirox] | -92.9 | 13.2
44 | FC1=CC=C(C=C1)N2/C=C\C=C(C(=O)NC3=CC=C(OC4=C5C=C[NH]C5=NC=C4)C(=C3)F)/C2=O [BMS-2] | -37.8 | 18.6
45 | CN(C)C1CCN(C(=O)c2ccc(NC(=O)Nc3ccc(-c4nc(N5CCOCC5)nc(N5CCOCC5)n4)cc3)cc2)CC1 [Gedatolisib] | -69.6 | 0.148
46 | N[S+]([O-])(=O)C1=CC=C(NC/2=C/C(=O)C3=CC=CC=C3C2=O)C=C1 | -81.9 | 10.5
47 | Cc1ccc([S+](=O)([O-])Cc2nc(-c3ccc(C(=O)NCc4cccnc4)cc3)oc2C)cc1 | -90.9 | 0.0372
48 | CC[C@H]1/C=C\C=C/C[C@@H](C)[C@H](O)[C@@](C)(O)C(=O)[C@@H](C)[C@H](O)[C@@H](C)C(=O)[C@@H](C)[C@H](O)[C@@H](C)/C=C/C(=O)O[C@@H]2[C@H](C)[C@H](CC1)O[C@]1(CC[C@H](C)[C@H](C[C@@H](C)O)O1)[C@H]2C [Oligomycin A] | -112 | 16.6
49 | CC1=C(C)C2=C(S1)[N]3C(=NN=C3[C@H](CC(=O)OC(C)(C)C)/N=C2/C4=CC=C(Cl)C=C4)C [JQ1] | -81.9 | 0.525
50 | C[C@H]1CCC/C=C/C2C[C@H](O)C[C@H]2[C@H](O)/C=C/C(=O)O1 (some centres undefined) [Cyanein] | -91.1 | 0.235
51 | CN(C)C/C=C/C(=O)Nc1ccc(C(=O)N2CCC[C@@H](Nc3ncc(Cl)c(-c4c[nH]c5ccccc45)n3)C2)cc1 [THZ531] | -74.2 | 0.132
52 | CC(C)NCCCn1c(Sc2cc(Cl)cc(Cl)c2)nc2c(N)ncnc21 [PU-WS-13] | -82.4 | 20.9
53 | CC(C)N(CCCNC(=O)Nc1ccc(C(C)(C)C)cc1)C[C@H]1O[C@@H](n2cc(Br)c3c(N)ncnc32)[C@H](O)[C@@H]1O [SGC-0946] | -95.9 | 20.9
54 | Cn1cnc2c(F)c(Nc3ccc(Br)cc3F)c(C(=O)NOCCO)cc21 [ARRY-162] | -60.8 | 0.468
55 | CC(=O)Nc1cc(Oc2ccc3c(nc(Nc4ccc(F)cc4F)n3C)c2C)ccn1 [CHZ868] | -67.4 | 0.833
56 | Clc1ccc(C(c2ccc(Cl)cc2)[n+]2ccn(CC(OCc3ccc(Cl)cc3Cl)c3ccc(Cl)cc3Cl)c2)cc1 (centres undefined) [Calmidazolium chloride] | -100 | 10.5
57 | OC(=O)C1=CC=C(NC2=NC3=C(C\N=C(/C4=CC(=CC=C34)Cl)C5=C(F)C=CC=C5F)C=N2)C=C1 [MLN-8054] | -38.3 | 0.332
